Read-outs that look alike come from different tables or passages of the source.
Biological target: T1, NR2F6 (ligand binding domain, amino acids 163-404) (Homo sapiens, UniProt P10588)
T1 construct: HIS (N, cleaved yes); FLAG (N, cleaved yes); TEV site (N, cleaved yes); made in house; host or cells: E. coli BL21 (DE3)
T1 sequence (P10588 163-404): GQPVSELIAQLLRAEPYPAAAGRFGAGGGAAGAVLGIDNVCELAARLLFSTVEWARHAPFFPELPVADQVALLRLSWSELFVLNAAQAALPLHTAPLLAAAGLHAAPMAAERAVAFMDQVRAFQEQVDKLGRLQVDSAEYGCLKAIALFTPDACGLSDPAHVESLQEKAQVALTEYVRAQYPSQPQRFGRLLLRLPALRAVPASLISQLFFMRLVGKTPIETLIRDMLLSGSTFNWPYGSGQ
Test: Thermoshift analysis (TSA) of compound binding to NR2F6
Conditions: for Tm: NR2F6 alone Tm 48 °C
Experimental: The binding interaction between target protein NR2F6 and 139 compounds selected from an in silico screen was assessed using thermoshift analysis (TSA). Thermoshift is a physical technique used to determine the melting temperature of a protein. The interaction of the ligand to the folded state of the protein shifts the melting temperature. In the experimental system used, the NR2F6 protein is mixed with the ligand and the fluorescent dye SYPRO Orange®. The fluorescence is monitored over temperature gradient between 20 and 95° C. with 0.5° C. increment. The dye binds to the hydrophobic regions of molten globules and denatured proteins resulting in an increase of fluorescence. A plot of the fluorescence is obtained and used to determine the melting temperature in absence and presence of ligand.
The ligand binding domain of NR2F6 (amino acids 163-404) was cloned for soluble expression in E. coli with an N-terminal HIS-FLAG-TEV-tag. Expression was performed in BL21 (DE3) cells. In brief, a 12L E. coli culture was induced with IPTG in logarithmic phase and further incubated over night at 18° C. Cells were harvested via centrifugation, washed with buffer and stored at […] until purification.
The purification procedure performed consists of HIS affinity chromatography, tag cleavage, negative affinity chromatography, size exclusion chromatography and ion exchange chromatography.
Thermoshift analysis was performed on 139 Compounds that were stored as powder in DMSO stocks. A reaction volume of 25 μl was used, with reaction temperatures being increased in 0.5 increments from 20-95° C. in 96 well, PCR plates (Hard-Shell®, HSP-9655). The control was NR2F6 protein alone in 1% DMSO. For performing the reaction, a reaction buffer comprising of the following was utilized: 20 mM HEPES pH 6.85, 150 mM NaCl, 10% Glycerin and 0.5 mM TCEP.
The following pipetting sequence was used: 1) Add appropriate volume of target enzyme in reaction buffer; 2) Add appropriate volume of dye SYPRO Orange® in reaction buffer; 3) Add inhibitor in 100% DMSO (1% final DMSO conc); 4) Measure fluorescence
Fluorescence was quantified using a CFX Connect™ Real-Time PCR Detection System (BioRad)
An increase in melting temperature is indicative for compound binding.

[1] = Table 1.1, 100 μM compound, shift versus NR2F6 alone (Tm 48 °C), read-out: delta Tm
[2] = Table 1.1, 100 μM compound, 0.5 mg/ml NR2F6, 1% DMSO
[3] = Table 1.1, 100 μM compound, shift versus NR2F6 alone (Tm 48 °C)

Compound	Tm (Table 1.2, 100 μM compound) [°C]	ΔTm at 100 µM [1] [°C]	Tm [2] [°C]	delta Tm [3] [°C]	ΔTm at 100 µM [°C]
O=Cc1c2c(cc3c1=Nc1ccccc1-3)=Nc1ccccc1-2 [Cpd 17, 6-Formylindolo [3,2-B] carbazole]	50	–	–	–	–
CC1=C(/C=C/C(C)=C/C=C/C(C)=C/C(=O)Nc2ccc(O)cc2)C(C)(C)CCC1 [Cpd 43, 4-Hydroxyphenylretinamide]	50	–	–	–	–
CC(C)(Oc1ccc(CCNC(=O)c2ccc(Cl)cc2)cc1)C(=O)O [Cpd 61, Bezafibrate]	–	0	–	–	–
O=C(Nc1ccccc1)c1cc([N+](=O)[O-])ccc1Cl [Cpd 62, GW 9662]	–	–	48	0	–
C[C@H](CCC(=O)NCC(=O)O)[C@H]1CC[C@H]2[C@@H]3[C@H](O)C[C@@H]4C[C@H](O)CC[C@]4(C)[C@H]3C[C@H](O)[C@]12C [Cpd 63, Glycochalic acid]	–	–	48	0	–
C/C=C1\C(=O)C[C@H]2[C@@H]3CCC4=CC(=O)CC[C@]4(C)[C@H]3CC[C@]12C [Cpd 64, Z-Guggulsterone]	–	–	46	−2	–
C[C@]12CC[C@@H]3c4ccc(O)cc4CC[C@H]3[C@@H]1CC[C@@H]2O [Cpd 65, 17b-Estradiol]	–	–	47	−1	–
Cc1cccc(Nc2cc(Cl)nc(SCC(=O)O)n2)c1C [Cpd 66, WY-14643]	–	-0.5	47.5	–	–
CCCc1c(OCCCCc2nnn[nH]2)ccc(C(C)=O)c1O [Cpd 67, LY 171883]	–	-1.5	46.5	–	–
Cc1ccc(C)c(OCCCC(C)(C)C(=O)O)c1 [Cpd 68, Gemfibrozil]	–	-0.5	47.5	–	–
CC(CCC(=O)NCC(=O)O)C1CCC2C3CCC4CC(O)CCC4(C)C3CC(O)C12C (stereo not shown) [Cpd 69, Glycodeoxycholic acid]	–	-1.5	46.5	–	–
Clc1cnc(Oc2ccc(Oc3ncc(Cl)cc3Cl)cc2)c(Cl)c1 [Cpd 70, TCPOBOP]	–	–	48	0	–
CC(=O)[C@H]1CC[C@H]2[C@@H]3CC=C4C[C@@H](O)CC[C@]4(C)[C@H]3CC[C@]12C [Cpd 71, Pregnenoione]	–	–	48	0	–
CC1(COc2ccc(CC3SC(=O)NC3=O)cc2)CCCCC1 (stereo not shown) [Cpd 72, Ciglitazone]	–	-0.5	–	–	–
CCCCC/C=C/C=C1/C(=O)C=C[C@@H]1C/C=C\CCCC(=O)O [Cpd 73, 15-Deoxy-D12,14-prostaglandin J2]	–	–	48	0	–
CC(C)(Sc1ccc(CCN(CCCCC2CCCCC2)C(=O)NC2CCCCC2)cc1)C(=O)O [Cpd 74, GW 7647]	–	-2.5	45.5	–	–
C[C@H](CCC(=O)NCCS(=O)(=O)O)[C@H]1CC[C@H]2[C@@H]3[C@H](O)C[C@@H]4C[C@H](O)CC[C@]4(C)[C@H]3C[C@H](O)[C@]12C [Cpd 75, Taurocholic acid]	–	–	47.5	–	-0.5
CCCCCCCC/C=C\CCCCCCCC(=O)NCCO [Cpd 76, N-Oleoylethanolamide]	–	–	48.5	0.5	–
C[C@]12CCC(=O)C=C1CC[C@@H]1[C@@H]2CC[C@]2(C)C(=O)CC[C@@H]12 [Cpd 77, Androstenedione]	–	–	47	–	-1
Cc1c(C)c2c(c(C)c1O)CCC(C)(COc1ccc(CC3SC(=O)NC3=O)cc1)O2 (stereo not shown) [Cpd 79, Troglitazone]	–	0	–	–	–
N[C@@H](Cc1cc(I)c(Oc2ccc(O)cc2)c(I)c1)C(=O)O [Cpd 80, 3,5-Diiodo-L-thyroine]	–	–	48.5	0.5	–
C[C@H](CCC(=O)NCCS(=O)(=O)O)[C@H]1CC[C@H]2[C@@H]3CC[C@@H]4C[C@H](O)CC[C@]4(C)[C@H]3C[C@H](O)[C@]12C [Cpd 81, Taurodeoxycholic acid]	–	-0.5	47.5	–	–
CC(C)c1onc(-c2c(Cl)cccc2Cl)c1COc1ccc(/C=C/c2cccc(C(=O)O)c2)c(Cl)c1 [Cpd 82, GW4064]	–	–	35	−13	–
C=C1/C(=C\C=C2/CCC[C@]3(C)[C@@H]([C@H](C)CCCC(C)(C)O)CC[C@@H]23)C[C@@H](O)C[C@@H]1O [Cpd 83, 1a,25-Dihydroxyvitamin D3]	–	–	46.5	−1.5	–

Compound	Tm (Table 1.2, 100 μM compound) [°C]	ΔTm at 100 µM [1] [°C]	Tm [2] [°C]	delta Tm [3] [°C]	ΔTm at 100 µM [°C]
CCCCCC=CCC=CCC=CCC=CCCCC(=O)O [Cpd 84, 5,8,11,14-Eicosatetranoic acid]	–	–	46.5	−1.5	–
Clc1ccc(-c2nc3sccn3c2/C=N/OCc2ccc(Cl)c(Cl)c2)cc1 [Cpd 85, CITCO]	–	–	48	0	–
N[C@@H](Cc1cc(I)c(O)c(I)c1)C(=O)O [Cpd 86, 3,5-Diiodo-L-tyrosine]	50	–	50	–	2
CO[C@H]1/C=C/O[C@@]2(C)Oc3c(C)c(O)c4c(O)c(c(/C=N/N5CCN(C)CC5)c(O)c4c3C2=O)NC(=O)/C(C)=C\C=C\[C@H](C)[C@H](O)[C@@H](C)[C@@H](O)[C@@H](C)[C@H](OC(C)=O)[C@@H]1C [Cpd 87, Rifampicin]	49.5	1.5	49.5	–	–
CC(C)=CCC/C(C)=C/CC/C(C)=C/CC/C(C)=C/CO [Cpd 88, Geranylgeranoil]	–	–	47.5	−0.5	–
CC/C=C\C/C=C\C/C=C\C/C=C\C/C=C\C/C=C\CCC(=O)O [Cpd 89, Docosa-4Z,7Z,10Z,13Z,16Z,19Z-hexaenoic acid]	–	-0.5	47.5	–	–
COc1ccc(NS(=O)(=O)c2cccc(NC(=O)c3ccc(Cl)nc3)c2)cc1 [Cpd 116]	–	–	47.5	−0.5	–
CCN(CC)S(=O)(=O)c1ccc(/C=C/C(=O)Nc2ccc(Br)cc2F)cc1 [Cpd 117]	–	–	48.5	0.5	–
Clc1ccc(OCCN2CCN(c3ncnc4sccc34)CC2)cc1 [Cpd 120]	–	–	46.5	−1.5	–
CC(=O)c1c(C)[nH]c(C(=O)OCCCCN2C(=O)c3ccccc3C2=O)c1C [Cpd 121]	–	–	48	0	–
Cc1cc(-n2c(C)cc(C(=O)CSc3ncnc4ccccc34)c2C)no1 [Cpd 122]	–	–	47.5	−0.5	–
CCN(CC)S(=O)(=O)c1cccc(NC(=O)COC(=O)c2[nH]c(C)c(C(C)=O)c2C)c1 [Cpd 123]	–	–	47.5	−0.5	–
CC(=O)c1c(C)[nH]c(C(=O)COc2cc(C)ccc2C(C)C)c1C [Cpd 125]	–	–	47.5	−0.5	–
COc1ccc(CNc2ncnc3ccccc23)cc1 [Cpd 126]	–	–	47.5	−0.5	–
Cc1nn(C)c(C)c1NC(=O)COc1ccc(Cl)cc1Br [Cpd 127]	–	–	47.5	−0.5	–
N#CCSc1nnc(-c2sc3ccccc3c2Cl)o1 [Cpd 128]	–	–	48	0	–
COc1ccc(CN(C)c2ccc(S(=O)(=O)N3CCN(C)CC3)cc2[N+](=O)[O-])cc1OC [Cpd 129]	–	–	47.5	−0.5	–
CCCCCCn1c(NCC)nc2c1c(=O)n(C)c(=O)n2C [Cpd 130]	–	–	47.5	−0.5	–
CC(=O)c1ccc(N2CCN(C(=S)Nc3ccc(Oc4ccccc4)cc3)CC2)cc1 [Cpd 131]	–	–	47.5	−0.5	–
O=C(Nc1ccncc1)c1ccc(Cl)c(S(=O)(=O)N2CCc3ccccc32)c1 [Cpd 132]	–	–	47.5	−0.5	–
CCN(CC)S(=O)(=O)c1cccc(NC(=O)CNc2cccc(S(=O)(=O)N3CCCC3)c2)c1 [Cpd 133]	49	1	49	–	–
c1ccc(CNc2ncnc3ccccc23)cc1 [Cpd 134]	–	–	47.5	−0.5	–
Cc1ccc(F)cc1NC(=O)Cc1nn(C)c(=O)c2ccccc12 [Cpd 135]	–	–	47.5	−0.5	–
S=C(NCCc1ccccc1)Nc1cccc2cnccc12 [Cpd 136]	–	–	47.5	−0.5	–
